Data as given in US20240351986A1, “UREA COMPOUND CONTAINING 2-HETEROAROMATIC RING SUBSTITUTION, PREPARATION METHOD THEREFOR AND USE THEREOF” (SHANGHAI INSTITUTE OF MATERIA MEDICA, CHINESE ACADEMY OF …, priority 2021, published 2024).

Target: T1, Recombinant human CDK9/cyclin T1 (Homo sapiens, UniProt P50750)
T1 construct: purchased Carna bioscience 04-110
Experiment: CDK9 enzyme inhibitory activity (ADP-Glo kinase assay)
Assay type: biochemical
Conditions: CDK9 enzyme activity, average of two independent repeats; for inhibition at 0.01 µM: read-out: Inhibition rate at different concentrations (%) 10 nM; for inhibition at 0.1 µM: read-out: Inhibition rate at different concentrations (%) 100 nM
Protocol: Experimental method: Recombinant human CDK9/cyclin T1 (Carna bioscience, Cat #04-110) was diluted with dilution buffer (20 mM Tris HCl (pH 7.5), 0.02% Triton X-100, 0.01% BSA, 2 mM DTT, 0.5 mM Na3VO4, 10% Glycerol) to […], the substrates CDK7/9 tide (ThermoFisher, Cat #PV5090) and ATP (sigmaaldrich, Cat #A1852) were diluted with assay buffer (25 mM Tris HCl (pH7.5), 10 mM MgCl2, 0.5 mM EGTA (pH 8), 0.5 mM Na3VO4, 5 mMb-glycerol phosphate, 0.1% Triton X-100, 2.5 mM DTT) to final concentrations of 100 μM and […] respectively, aliquot and set aside. 2 μl of diluted recombinant human CDK9/cyclin T1, 1 μl of test compound, and 2 μl of diluted substrate CDK7/9 tide containing ATP were added to the 384-well plate. […] The positive control was the well in which enzyme and substrate were co-incubated, and the negative control was the well in which dilution buffer and substrate were co-incubated. The inhibition rate was calculated according to the following formula.

T1 sequence (P50750 whole entry): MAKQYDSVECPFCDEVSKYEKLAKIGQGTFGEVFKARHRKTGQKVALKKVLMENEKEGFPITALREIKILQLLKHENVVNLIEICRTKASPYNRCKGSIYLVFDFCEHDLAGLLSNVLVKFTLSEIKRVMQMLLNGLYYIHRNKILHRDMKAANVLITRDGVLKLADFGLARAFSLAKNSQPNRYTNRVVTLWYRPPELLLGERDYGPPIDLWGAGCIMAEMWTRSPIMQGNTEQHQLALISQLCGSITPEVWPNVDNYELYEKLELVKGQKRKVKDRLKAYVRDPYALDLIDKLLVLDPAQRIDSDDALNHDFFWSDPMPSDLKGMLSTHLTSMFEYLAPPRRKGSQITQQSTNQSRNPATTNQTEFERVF
T1 sequence (O60563 whole entry partner): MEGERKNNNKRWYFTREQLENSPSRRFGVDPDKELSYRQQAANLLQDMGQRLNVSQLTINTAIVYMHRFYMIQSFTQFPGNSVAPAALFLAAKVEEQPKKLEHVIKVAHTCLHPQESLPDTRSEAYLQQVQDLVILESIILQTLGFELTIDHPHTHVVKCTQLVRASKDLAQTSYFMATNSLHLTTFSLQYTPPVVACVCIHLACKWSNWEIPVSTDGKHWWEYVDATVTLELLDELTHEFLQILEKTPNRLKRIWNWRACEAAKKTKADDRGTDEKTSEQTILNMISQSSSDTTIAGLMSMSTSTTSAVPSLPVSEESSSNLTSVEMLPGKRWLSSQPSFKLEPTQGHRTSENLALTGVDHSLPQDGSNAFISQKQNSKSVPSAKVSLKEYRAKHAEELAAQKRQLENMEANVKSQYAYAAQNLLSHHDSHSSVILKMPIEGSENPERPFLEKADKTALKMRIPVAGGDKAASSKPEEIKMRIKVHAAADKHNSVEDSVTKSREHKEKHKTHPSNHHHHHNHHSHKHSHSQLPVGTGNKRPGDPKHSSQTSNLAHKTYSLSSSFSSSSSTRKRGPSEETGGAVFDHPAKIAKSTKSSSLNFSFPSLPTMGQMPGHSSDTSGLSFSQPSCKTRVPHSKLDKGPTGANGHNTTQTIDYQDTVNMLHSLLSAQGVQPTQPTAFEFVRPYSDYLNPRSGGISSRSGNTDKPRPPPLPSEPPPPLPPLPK

Row | inhibition at 0.01 µM (compound 10 nM) [%] | inhibition at 0.1 µM (compound 100 nM) [%] | Inhibition rate at different concentrations (%) 10 nM (compound 10 nM, 0.01 µM) [%] | Inhibition rate at different concentrations (%) 100 nM (compound 100 nM, 0.1 µM) [%] | SMILES
1 | 54 | 90.9 |  |  | CC1(C)Cc2c(-c3cc(NC(=O)NC4CCC(NCCO)CC4)ncc3Cl)cnn2C1 (stereo not drawn) [Example 62, 1-(5-chloro-4-(5,5-dimethyl-5,6-dihydro-4H-pyrrolo[1,2-b]pyrazol-3-yl)pyridin-2-yl)-3-((1r,4r)-4-((2-hydroxyethyl)amino)cyclohexyl)urea]
2 | 40.2 | 69.3 |  |  | CC1(C)Cc2c(-c3cc(NC(=O)NC4CCC(NC5COC5)CC4)ncc3Cl)cnn2C1 (stereo not drawn) [Example 63]
3 | 28 | 56 |  |  | CC1(C)Cc2c(-c3cc(NC(=O)NC4CCC(NC(=O)OC(C)(C)C)CC4)ncc3Cl)cnn2C1 (stereo not drawn) [Example 64, tert-butyl (1s,4s)-4-(3-(5-chloro-4-(5,5-dimethyl-5,6-dihydro-4H-pyrrolo [1,2-b]pyrazol-3-yl)pyridin-2-yl)ureido)cyclohexylcarbamate]
4 |  |  | 58.0 | 84.0 | CC1(C)Cc2c(-c3cc(NC(=O)NC4CCC(N)CC4)ncc3Cl)cnn2C1 (stereo not drawn) [Example 65, 1-((1s,4s)-4-aminocyclohexyl)-3-(5-chloro-4-(5,5-dimethyl-5,6-dihydro-4H-pyrrolo[1,2-b]pyrazol-3-yl)pyridin-2-yl)urea]
5 | 57 | 69 |  |  | COCCNC1CCC(NC(=O)Nc2cc(-c3cnn4c3CC(C)(C)C4)c(Cl)cn2)CC1 (stereo not drawn) [Example 66, 1-(5-chloro-4-(5,5-dimethyl-5,6-dihydro-4H-pyrrolo[1,2-b]pyrazol-3-yl)pyridin-2-yl)-3-((1s,4s)-4-((2-methoxyethyl)amino)cyclohexyl)urea]
6 | 44 | 89 |  |  | CC1(C)Cc2c(-c3cc(NC(=O)NC4CCNCC4)ncc3Cl)cnn2C1 [Example 68, 1-(5-chloro-4-(5,5-dimethyl-5,6-dihydro-4H-pyrrolo[1,2-b]pyrazol-3-yl)pyridin-2-yl)-3-(piperidin-4-yl)urea]
7 | 33.8 | 79.5 |  |  | CC1(C)Cc2c(-c3cc(NC(=O)NC4CCCNCC4)ncc3Cl)cnn2C1 (stereo not drawn) [Example 69, 1-(azepan-4-yl)-3-(5-chloro-4-(5,5-dimethyl-5,6-dihydro-4H-pyrrolo[1,2-b]pyrazol-3-yl)pyridin-2-yl)urea]
8 | 40 | 83.7 |  |  | CC1(C)Cc2c(-c3cc(NC(=O)NC4CCCC(N)CC4)ncc3Cl)cnn2C1 (stereo not drawn) [Example 70, 1-(4-aminocycloheptyl)-3-(5-chloro-4-(5,5-dimethyl-5,6-dihydro-4H-pyrrolo[1,2-b]pyrazole-3-yl)pyridin-2-yl)urea]
9 | 34 | 64 |  |  | CC1(C)Cc2c(-c3cc(NC(=O)NCCCNC(=O)OC(C)(C)C)ncc3Cl)cnn2C1 [Example 71, tert-butyl (3-(3-(5-chloro-4-(5,5-dimethyl-5,6-dihydro-4H-pyrrolo[1,2-b]pyrazol-3-)pyridin-2-yl)ureido)propyl)carbamate]
10 | 45 | 69 |  |  | CC1(C)Cc2c(-c3cc(NC(=O)NCCCN)ncc3Cl)cnn2C1 [Example 72, 1-(3-aminopropyl)-3-(5-chloro-4-(5,5-dimethyl-5,6-dihydro-4H-pyrrolo [1,2-b]pyrazol-3-yl)pyridin-2-yl)urea]
11 | 70 | 86 |  |  | CC1(C)Cc2c(-c3cc(NC(=O)N[C@@H]4CC[C@@H](N)C4)ncc3Cl)cnn2C1 [Example 73, 1-((1S,3S)-3-aminocyclopentyl)-3-(5-chloro-4-(5,5-dimethyl-5,6-dihydro-4H-pyrrole[1,2-b]pyrazole-3-yl)pyridin-2-yl)urea]
12 | 51 | 83 |  |  | CC(=O)NC1CC(NC(=O)Nc2cc(-c3cnn4c3CC(C)(C)C4)c(Cl)cn2)C1 (stereo not drawn) [Example 75, N-((1r,3r)-3-(3-(5-chloro-4-(5,5-dimethyl-5,6-dihydro-4H-pyrrolo[1,2-b]pyrazol-3-yl)pyridin-2-yl)ureido)cyclobutyl)acetamide]
13 | 25 | 91 |  |  | CC1(C)Cc2c(-c3cc(NC(=O)NC4CCCC(NC(=O)OC(C)(C)C)C4)ncc3Cl)cnn2C1 (stereo not drawn) [Example 76, tert-butyl (3-(3-(5-chloro-4-(5,5-dimethyl-5,6-dihydro-4H-pyrrolo[1,2-b]pyrazol-3-yl)pyridin-2-yl)ureido)cyclohexyl)carbamate]
14 | 60.3 | 92 |  |  | CC1(C)Cc2c(-c3cc(NC(=O)NC4CCCC(N)C4)ncc3Cl)cnn2C1 (stereo not drawn) [Example 77, 1-(3-aminocyclohexyl)-3-(5-chloro-4-(5,5-dimethyl-5,6-dihydro-4H-pyrrolo[1,2-b]pyrazol-3-yl)pyridin-2-yl)urea]
15 | 68 | 80 |  |  | CCNC1CCCC(NC(=O)Nc2cc(-c3cnn4c3CC(C)(C)C4)c(Cl)cn2)C1 (stereo not drawn) [Example 78, 1-(5-chloro-4-(5,5-dimethyl-5,6-dihydro-4H-pyrrolo[1,2-b]pyrazol-3-yl)pyridin-2-yl)-3-(3-(ethylamino)cyclohexyl)urea]
16 | 53 | 87 |  |  | CC(=O)NC1CCCC(NC(=O)Nc2cc(-c3cnn4c3CC(C)(C)C4)c(Cl)cn2)C1 (stereo not drawn) [Example 79, N-(3-(3-(5-chloro-4-(5,5-dimethyl-5,6-dihydro-4H-pyrrolo[1,2-b]pyrazol-3-yl)pyridin-2-yl)ureido)cyclohexyl)acetamide]
17 | 48 | 56 |  |  | COCCNC1CCCC(NC(=O)Nc2cc(-c3cnn4c3CC(C)(C)C4)c(Cl)cn2)C1 (stereo not drawn) [Example 80, 1-(5-chloro-4-(5,5-dimethyl-5,6-dihydro-4H-pyrrolo[1,2-b]pyrazol-3-yl)pyridin-2-yl)-3-(3-((2-methoxyethyl)amino)cyclohexyl)urea]
18 | 58.3 | 91.5 |  |  | CC(=O)NC1CCC(NC(=O)Nc2cc(-c3cnn4c3CC3(CC3)C4)c(Cl)cn2)CC1 (stereo not drawn) [Example 81, N-((1r,4r)-4-(3-(5-chloro-4-(4′H,6′H-spiro[cyclopropane-1,5′-pyrrolo[1,2-b]pyrazole]-3′-yl)pyridin-2-yl)ureido)cyclohexyl)acetamide]
19 | 38 | 79.2 |  |  | CC(=O)NC1CCC(NC(=O)Nc2cc(-c3cnn4c3COCC4)c(Cl)cn2)CC1 (stereo not drawn) [Example 82, N-((1r,4r)-4-(3-(5-chloro-4-(6,7-dihydro-4H-pyrazolo[5,1-c][1,4]oxazine-3-yl)pyridin-2-yl)ureido)cyclohexyl)acetamide]
20 | 40.2 | 68.3 |  |  | CC(=O)NC1CCC(NC(=O)Nc2cc(-c3cnn4c3CN(C)CC4)c(Cl)cn2)CC1 (stereo not drawn) [Example 83, N-((1r,4r)-4-(3-(5-chloro-4-(5-methyl-4,5,6,7-tetrahydropyrazolo[1,5-a]pyrazin-3-yl)pyridin-2-yl)ureido)cyclohexyl)acetamide]
21 | 39.5 | 66.3 |  |  | CC(=O)NC1CCC(NC(=O)Nc2cc(-c3cnn4c3CCC4)c(Cl)cn2)CC1 (stereo not drawn) [Example 84, N-((1r,4r)-4-(3-(5-chloro-4-(5,6-dihydro-4H-pyrrolo[1,2-b]pyrazol-3-yl)pyridin-2-yl)ureido)cyclohexyl)acetamide]
22 | 28.9 | 72 |  |  | CC(=O)NC1CCC(NC(=O)Nc2cc(-c3cnc(C)n3C(C)C)c(Cl)cn2)CC1 (stereo not drawn) [Example 85, N-((1r,4r)-4-(3-(5-chloro-4-(1-isopropyl-2-methyl-1H-imidazol-5-yl)pyridin-2-yl)ureido)cyclohexyl)acetamide]
23 | 50.1 | 88.3 |  |  | CC(=O)NC1CCC(NC(=O)Nc2cc(-c3cnc4n3CC(C)(C)C4)c(Cl)cn2)CC1 (stereo not drawn) [Example 86, N-((1r,4r)-4-(3-(5-chloro-4-(6,6-dimethyl-6,7-dihydro-5H-pyrrolo [1,2-a]imidazol-3-)pyridin-2-yl)ureido)cyclohexyl)acetamide]
24 | 43.8 | 75.3 |  |  | CC(=O)NC1CCC(NC(=O)Nc2cc(-n3cnc(C4CC4)c3)c(Cl)cn2)CC1 (stereo not drawn) [Example 87, N-((1r,4r)-4-(3-(5-chloro-4-(4-cyclopropyl-1H-imidazol-1-yl)pyridin-2-yl)ureido)cyclohexyl)acetamide]
25 | 55.7 | 94.2 |  |  | CNC1CCC(NC(=O)Nc2cc(-c3cnn4c3CC(C)(C)C4)c(Cl)cn2)CC1 (stereo not drawn) [Example 88, 1-(5-chloro-4-(5,5-dimethyl-5,6-dihydro-4H-pyrrolo[1,2-b]pyrazol-3-yl)pyridin-2-yl)-3-((1r,4r)-4-(methylamino)cyclohexyl)urea]
26 | 63.7 | 92.7 |  |  | CN(C)C1CCC(NC(=O)Nc2cc(-c3cnn4c3CC(C)(C)C4)c(Cl)cn2)CC1 (stereo not drawn) [Example 89, 1-(5-chloro-4-(5,5-dimethyl-5,6-dihydro-4H-pyrrolo[1,2-b]pyrazol-3-yl)pyridin-2-yl)-3-((1r,4r)-4-(dimethylamino)cyclohexyl)urea]
27 | 61 | 98 |  |  | COCCN(C)C1CCC(NC(=O)Nc2cc(-c3cnn4c3CC(C)(C)C4)c(Cl)cn2)CC1 (stereo not drawn) [Example 90, 1-(5-chloro-4-(5,5-dimethyl-5,6-dihydro-4H-pyrrolo[1,2-b]pyrazol-3-yl)pyridin-2-yl)-3-((1r,4r)-4-((2-methoxyethyl)(methyl)amino)cyclohexyl)urea]
